From patent US10350210B2, “EGFR and ALK dual inhibitor” (PRECEDO PHARMACEUTICALS CO., LTD, priority 2015, dated 2019)

Tests used:
[1] = tested on: EGFR protein (wild-type EGFR, A549); assay: Effect on signaling pathway in cells, A549; assay type: cell-based, human; settings: 0.03-3 μM, 4 h
Text: (§1) In four cell lines (all purchased from ATCC) including non-small cell lung cancer cell line A549 (expressing wild-type EGFR gene), non-small cell lung cancer cell line H1975 (expressing EGFR L858R/T790M double mutant gene), non-small cell lung cancer cell line H3255 (expressing EGFR L858R mutant gene) and non-small cell lung cancer cell line PC-9 (expressing EGFR delE746_A750 mutant gene), the effect of Compound 1 on EGFR or other protein kinases related to signaling pathways of EGFR such as Stat3, AKT, ErK, eIF4E, 4EBP1, P70S6K was assessed by assaying a number of cellular biochemical and functional endpoints. […] The effect of Compound 1 on phosphorylation of Stat3Y705, AKT T308, AKT 5473, Erk T202/204, EGFR Y1068, P70S6K Thr389, eIF4E Ser209, Erk T202/204, 4EBP1 (Thr37/46) in these cell lines was assayed (FIGS. 1a to 1d).

[2] = tested on: EGFR protein (EGFR L858R, H3255); assay: Effect on signaling pathway in cells, H3255; assay type: cell-based; settings: 4 h
Text: as §1

[3] = tested on: EGFR protein (EGFR delE746_A750, PC-9); assay: Effect on signaling pathway in cells, PC-9; assay type: cell-based, human; settings: PC-9 (EGFR delE746_A750), 4 h
Text: as §1

PC-9 [4] = assay: Effect on cell cycle (PI staining, flow cytometer), PC-9; assay type: cell-based, human; settings: PC-9 (EGFR delE746_A750), 24 hours
Text: In order to study which growth phase the cell was halted after administration of the drugs, five cell lines including non-small cell lung cancer cell line A549 (expressing wild-type EGFR gene), non-small cell lung cancer cell line H1975 (expressing EGFR L858R/T790M double mutant gene), non-small cell Lung cancer cell line PC-9 (expressing EGFR delE746_A750 mutant gene), non-small cell lung cancer cell line H3255 (expressing EGFR L858R mutant gene) and non-small cell lung cancer cell NCI-H3122 (expressing ALK gene) were tested for effect of Compound 1 on cell cycle distribution. Two cell lines including non-small cell lung cancer cell NCI-H3122 (expressing ALK gene) and non-small cell lung cancer cell H1975 (expressing EGFR L858R/T790M double mutant gene) were tested for effect of Compound 10 on cell cycle distribution. […]

PC-9 [5] = assay: Effect on cell apoptosis (Western Blot, PARP and Caspase 3 cleavage), PC-9; assay type: cell-based, human; settings: PC-9 (EGFR delE746_A750), 24 hours
Text: In order to confirm whether the death of cells is through apoptosis or necrosis after administration of drugs, non-small cell lung cancer cell A549 (expressing wild-type EGFR gene), non-small cell lung cancer cell line H1975 (expressing EGFR L858R/T790M double mutant gene), non-small cell lung cancer cell line H3255 (expressing EGFR L858R mutant gene), non-small cell lung cancer cell line H3122 (expressing ALK gene) cell line, and non-small cell lung cancer cell line PC-9 (expressing EGFR delE746_A750 mutant gene) were tested for effect of Compound 1 on cleavage of poly ADP-ribose polymerase PARP which is a DNA repair enzyme and Caspase 3, which were closely related to cell apoptosis. […] Western Blot was used to detect the effect of various concentrations of drugs at various time points on cleavage of poly ADP-ribose polymerase PARP which is a DNA repair enzyme and Caspase 3.

[6] = tested on: non-small cell lung cancer cell H1975 subcutaneous tumors; assay: Mouse tumor model of non-small cell lung cancer cell H1975; assay type: in vivo; settings: for tumor inhibition rate: Bal b/c mice
Protocol: Similarly, 27 Bal b/c female mice, 4-6 weeks old, were purchased from Shanghai SLAC Laboratory Animal Co., Ltd., and maintained in an SPF laboratory. Drinking water and bedding were both sterilized by autoclaving. All operations involving the mice were performed under aseptic conditions. At day 0, 5×10^6 non-small cell lung cancer cells H1975 (purchased from ATCC) were injected subcutaneously into the left flank of all mice. At day 15, all mice were divided into three groups (9 mice per group), and the first group of mice were orally administered with methyl cellulose (HKI) solvent, the second group of mice were orally administered with Compound 1 at a dose of 25 mg/kg mouse weight, and the third group of mice were orally administered with Compound 1 at a dose of 50 mg/kg mouse weight daily. Starting from the administration, the length/width of the subcutaneous tumor was measured daily with a vernier caliper, and the weight of the mice was recorded daily to observe the effect of Compound 1 on the body weight of the mice. The mice were sacrificed at day 36 and the subcutaneous tumors were collected. The tumors were weighed, and then the tumor tissues were used to prepare protein lysates for use. The growth trend of the subcutaneous tumor within 16-36 days was plotted, wherein the tumor volume was calculated as length×width×width/2 mm^3.

C=CC(=O)Nc1cc(Nc2ncc(Cl)c(Nc3ccccc3S(=O)(=O)C(C)C)n2)c(OC)cc1N1CCN(CC)CC1 [Compound 1, N-(5-(5-chloro-4-(2-(isopropylsulfonyl)phenylamino)pyrimidin-2-ylamino)-2-(4-ethylpiperazin-1-yl)-4-methoxyphenyl)acrylamide]
effect on phosphorylation of EGFR protein and of STAT3, S6K, AKT, ERK, eIF4E [1]: little effect | concentration able to significantly inhibit the phosphorylation of EGFR protein (also affects AKT and ERK phosphorylation) [2]: 0.3 µM | concentration able to significantly inhibit the phosphorylation of EGFR protein (also affects AKT and ERK phosphorylation) [3]: 0.3 µM | effect on cell cycle distribution (PC-9 [4]): halt the cells in G0-G1 phase | concentration at which evident cleavage of PARP and Caspase 3 could be observed (PC-9 [5]): 0.3 µM | tumor inhibition rate ([6]; oral daily 25 mg/kg, on the second day of administration): 70% | tumor inhibition rate ([6]; oral daily 50 mg/kg, after 8 days of administration): 81.7% | body weight of the mice ([6]; oral daily 25 mg/kg): did not decrease | body weight of the mice ([6]; oral daily 50 mg/kg): did not decrease
